Results on one molecule are retold here after paper PMC9485191, “The ERK5/NF-κB signaling pathway targets endometrial cancer proliferation and survival” (Cellular and Molecular Life Sciences, 2022).

Experiment [1] deals with T1, ERK5 (Homo sapiens, UniProt Q13164).
T1 construct: gene MAPK7
The experiment in a line: in vitro (cell-free) kinase assay at […] ATP ([…] at […] ATP); supported by inhibition of EGF-induced ERK5 phosphorylation in cells. Format: biochemical.

The test system of another experiment is AN3CA (endometrial). The experiment in a line: cells. Also noted: MTT reduction cytotoxicity assay in human tumour cell lines. The conditions noted are these: Homo sapiens, AN3-CA; 48 h, MTT. The procedure: (§1) Cell viability was determined by MTT (3-(4,5-dimethyl-2-thiazolyl)-2,5-diphenyl-2H-tetrazolium Blue, Sigma) reduction assay. For clonogenic assays, cells were seeded in 6-well plates, treated for 14 days and stained with 0.5% crystal violet solution. Colonies with > 40 cells were counted. Cell proliferation was measured by cell counting assay, using a TC10TM automated cell counter (Bio-Rad, Hercules, CA, USA) using Trypan Blue. Cell viability was also determined using a LIVE/DEAD viability/cytotoxicity kit assay (ThermoFisher), as reported before. The above results prompted us to investigate the anticancer activity of ERK5 inhibition in EC. To do so, we used the endometrioid cancer cell lines Ishikawa and AN3CA cells (that carry PTEN deficiency and P53 mutation), as well as the more clinically aggressive non-endometrioid serous adenocarcinoma cell line ARK1 (PI3KCA mutation). In cell viability assays, JWG-071 induced cytotoxicity in the three EC cell lines tested, with IC50 values ranging 2–3 µM. In fact, JWG-071 induced cytotoxicity in a wide panel of cancer cells, including prostate, cervical, neuroblastoma, and glioblastoma cancers (Supplementary Fig. 4).

Another experiment relates to ARK1 (endometrial). The experiment in a line: cells. Also noted: MTT reduction cytotoxicity assay in human tumour cell lines. The conditions noted are these: 48 h, MTT. The procedure:
as §1

For a further experiment, the system named is C4-2 (prostate). Nature of the experiment: cells. Particulars: 48 h, MTT. Also noted: MTT reduction cytotoxicity assay in human tumour cell lines. As to the method: as §1
In another experiment the test system is Hela (cervical). The experiment in a line: cells. Also noted: MTT reduction cytotoxicity assay in human tumour cell lines. Particulars: Homo sapiens, HeLa; 48 h, MTT. The procedure: as §1
The next experiment relates to IMR-32 (neuroblastoma). Nature of the experiment: cells. Also noted: MTT reduction cytotoxicity assay in human tumour cell lines. The conditions noted are these: Homo sapiens, IMR-32; 48 h, MTT. The procedure: as §1
For a further experiment, the system named is Ishikawa (endometrial). The experiment in a line: cells. The arrangement: MTT reduction cytotoxicity assay in human tumour cell lines. Particulars: Homo sapiens, Ishikawa; 48 h, MTT. As to the method:
as §1

The next experiment has as its system LN-18 (glioblastoma). The experiment in a line: cells. Also noted: MTT reduction cytotoxicity assay in human tumour cell lines. Particulars: Homo sapiens, LN-18; 48 h, MTT. As to the method: as §1
The subject of another experiment is SH-SY5Y (neuroblastoma). Nature of the experiment: cells. Also noted: MTT reduction cytotoxicity assay in human tumour cell lines. The conditions noted are these: Homo sapiens, SH-SY5Y; 48 h, MTT. The procedure: as §1
The target in experiment [2] is T1, ERK5. The experiment in a line: biochemical. The arrangement: radiometric 32P-ATP kinase assay, active ERK5, PIMtide substrate, p81 paper, Cherenkov counting. The conditions noted are these: 200 uM ATP. From the text:
Gene silencing Validated siRNAs targeting NEMO were from Sigma (ref. EHU032271) and ThermoFisher (ref. AM51331). Scrambled (control) siRNA was from ThermoFisher. siRNAs were transfected into cells using Lipofectamine-2000, following the manufacturer’s recommended protocol. The vectors encoding two different shRNAs targeting ERK5 were from Sigma (TRCN0000010262/pLKO.1; TRCN0000010275/pLKO.1). Lentiviral production is detailed at Supplementary Materials and Methods. In vitro ERK5 kinase activity assay A 40 μL reaction mixture was prepared containing 200 ng of pure active ERK5 (1) and the indicated amount of inhibitor in 50 mM Tris-HCl, pH 7.5, 0.1 mM EGTA, 1 mM 2-mercaptoethanol. […] Assays were carried out for 20 min at 30°C, terminated by applying the reaction mixture onto p81 paper, and the incorporated radioactivity measured by Cherenkov counting. Most of the ERK5 inhibitors developed so far, including JWG-071, are type I competitive inhibitors that target the ATP-binding site. […] Taking in account that the homeostatic levels of intracellular ATP range from 0.5 to 5 mM [31], it is very likely that ERK5 competitive inhibitors (such as JWG-071) should require µM concentrations to displace ATP from the active site in cells. […]

T1 sequence (Q13164 2-816): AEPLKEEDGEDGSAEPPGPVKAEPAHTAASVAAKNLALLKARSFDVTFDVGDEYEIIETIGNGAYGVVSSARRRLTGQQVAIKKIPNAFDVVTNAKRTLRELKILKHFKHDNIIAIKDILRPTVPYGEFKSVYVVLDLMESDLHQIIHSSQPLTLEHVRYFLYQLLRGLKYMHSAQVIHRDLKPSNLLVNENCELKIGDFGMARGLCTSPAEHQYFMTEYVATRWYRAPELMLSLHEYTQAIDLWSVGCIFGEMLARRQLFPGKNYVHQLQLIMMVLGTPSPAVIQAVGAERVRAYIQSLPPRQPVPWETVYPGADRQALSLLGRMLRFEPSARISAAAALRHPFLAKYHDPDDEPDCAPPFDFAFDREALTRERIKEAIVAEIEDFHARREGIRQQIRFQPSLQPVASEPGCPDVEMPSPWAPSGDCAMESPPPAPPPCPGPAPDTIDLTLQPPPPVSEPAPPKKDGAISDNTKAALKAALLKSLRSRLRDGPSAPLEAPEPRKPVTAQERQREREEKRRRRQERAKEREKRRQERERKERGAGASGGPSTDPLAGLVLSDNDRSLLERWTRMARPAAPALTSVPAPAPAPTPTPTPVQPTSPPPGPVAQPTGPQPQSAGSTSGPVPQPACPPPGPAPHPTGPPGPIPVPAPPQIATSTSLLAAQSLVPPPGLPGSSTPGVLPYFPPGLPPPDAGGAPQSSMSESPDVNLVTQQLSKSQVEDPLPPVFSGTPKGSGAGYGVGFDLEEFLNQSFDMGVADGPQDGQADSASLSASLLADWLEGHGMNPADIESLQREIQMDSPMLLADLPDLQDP

With `CCC(C)N1c2ccccc2C(=O)N(C)c2cnc(Nc3ccc(C(=O)N4CCC(N5CCN(C)CC5)CC4)cc3OC)nc21` (stereo not shown) [JWG-071], the IC50 (commonly the concentration that gives 50% inhibition) at ERK5 [1] was ~90 nM; in the experiment with AN3CA (endometrial), 3300 ± 600 nM; with ARK1 (endometrial) it was 2700 ± 200 nM; with C4-2 (prostate), 2200 ± 300 nM; in the experiment on Hela (cervical), 2900 ± 700 nM; in the experiment with IMR-32 (neuroblastoma) it was 1900 ± 300 nM. In addition, the IC50 in the experiment with Ishikawa (endometrial) was determined as 3200 ± 800 nM; with LN-18 (glioblastoma), 2900 ± 400 nM; in the experiment with SH-SY5Y (neuroblastoma), 4200 ± 1400 nM; against ERK5 [2] it was 572 ± 51 nM.
